From patent US8318768B2, “Bronchodilating alpha, beta-unsaturated isoquinoline amides” (Respiratorius AB, priority 2007, dated 2012)

Columns and labels:
Assay type in all cases: cell-based
MCP-1 = assay: Human PBMC in vitro model, MCP-1 production (Luminex-based assay); settings: compound 10 μM or dexamethasone 1 μM, 24 h supernatant
Description: (§1) Cryopreserved PBMC's (SeraCare, # 72001) were thawed, washed with culture media (RPMI-1640 from Invitrogen, # 61870-036+10% heat inactivated fetal bovine serum from Invitrogen, # 10082-147+100 U/ml penicillin+[…] streptomycin) and tested for viability using Trypan blue (PBMC viability=96%). Cells were then resuspended to 1×10^6 cells/ml in culture media and 0.5 ml was plated into 24 well culture plates (5×10^5 cells/well) before incubation for 30 minutes at 37° C. with 5% CO2 prior to addition of a compound of the present invention (10 μM) or dexamethasone (1 μM). One hour thereafter, LPS (0.1 μg/ml, Salmonella abortus equi, Sigma, # L1887) was added and the cells were incubated for another 24 h before collection of the cell culture supernatants, which were assayed for the presence of MCP-1 and LTB4.
MCP-1 levels were quantified employing a Luminex-based assay according the manufacturer's instructions. Data was collected using a Luminex 100 (Luminex Corporation, Austin, Tex.). Standard curves were generated using a 5-parameter logistic curve fitting equation weighted by 1/y (StarStation V 2.0; Applied Cytometry Systems, Sacramento, Calif.). Each sample reading was interpolated from the appropriate standard curve. Calculated concentrations were multiplied by the appropriate dilution factor when necessary.
(§2) The inhibitory effect of compounds of the present invention, dexamethasone, and vehicle on production of MCP-1 and LTB4 in the PBMC model as described herein above, with (+LPS) or without (−LPS) LPS-induced mediator production, is tabulated below.

LTB4 = assay: Human PBMC in vitro model, LTB4 production (ELISA); settings: compound 10 μM or dexamethasone 1 μM, 24 h supernatant
Description: as §1
LTB4 levels were quantified by ELISA following the manufacturer's instructions. Absorbance readings were detected using a ThermoMax microplate reader (Molecular Devices). Standard curves were generated using a 4-parameter logistic curve fitting equation (SoftMax Pro 4.7.1; Molecular Devices). Each sample reading was interpolated from the appropriate standard curve. Duplicate interpolated sample values were averaged and standard deviations were calculated. Calculated concentrations were multiplied by the appropriate dilution factor.
as §2

human bronchiols [1] = assay: Leukotriene D4 induced contraction of human bronchiols, in vitro model (Biological Example 1); settings: pre-treatment with compound 10 μM, Leukotriene D4 (10 nM) induced contraction, read-out: Remaining contraction (%)
Description: (§3) The usefulness of the compounds, as defined in the preceding embodiments, in treating, pretreating, revoking, mitigating, alleviating and/or preventing a condition of the respiratory apparatus characterized by bronchoconstriction, were evaluated in a complex and relevant in vitro model. The in vitro model was in accordance with the in vitro model disclosed in US 2006-0040254 A1 and by Skogvall, S., Berglund, M., Dalence-Guzman, M. F., Svensson, K., Jonsson, P., Persson, C. G. A and Sterner, O., in Pulmonary Pharmacology and Therapeutics, vol 20:3, 2007, p. 273-280. All references disclosed herein are hereby incorporated in their entirety by reference.
(§4) In short, lung tissue was obtained from patients undergoing lobectomia or pulmectomia due to lung carcinoma. From the bronchus of this tissue were rectangular oblong preparations obtained. The contraction induced by inflammatory mediators, such as Leukotriene D4, histamine, prostaglandin D2 or acetylcholine, in the presence and absence of the compound to be evaluated, were compared.
The remaining contraction, after pre-treatment with various compound examples at a concentration of 10 μM, of human bronchiols after Leukotriene D4 (10 nM) induced contraction according to the in vitro method described herein above are tabulated below.

human bronchiols [2] = assay: Contraction of human bronchiols induced by acetylcholine, carbachol, histamine, methacholine or a mixture (Biological Example 2); settings: compound 10 μM
Description: as §3, §4
(§5) The remaining contraction, after pre-treatment with various compound examples at a concentration of 10 μM, of human bronchiols or rat bronhi after the induction of contraction by treatment with the contractile agents acetylcholine (100 uM), carbachol (10 uM), histamine (100 uM), methacholine (100 uM) or a mixture of acetylcholine (100 uM), leukotriene D4 (LTD4) (0.01 uM) and histamine (100 uM), according to the in vitro method described herein above, are tabulated below: […]

rat bronhi = assay: Contraction of rat bronchi induced by acetylcholine, carbachol or methacholine (Biological Example 2); settings: compound 10 μM
Description: as §3, §4, §5

[3] = Mixture of Acetylcholine (100 uM), LTD4 (0.01 uM) and histamine (100 uM)

C[C@@H]1C[C@H]2[C@@H]3CCC4=CC(=O)C=C[C@]4(C)[C@@]3(F)[C@@H](O)C[C@]2(C)[C@@]1(O)C(=O)CO [Dexamethasone, reference compound]
Mean MCP-1 (MCP-1; with LPS 0.1 μg/ml (+LPS)): 1425.6 pg/mL
Mean MCP-1 (MCP-1; without LPS (−LPS)): 0 pg/mL
Mean LTB-4 (LTB4; with LPS 0.1 μg/ml (+LPS)): 12.6 pg/mL
Mean LTB-4 (LTB4; without LPS (−LPS)): 2.7 pg/mL

O=C(/C=C/c1ccccc1)N1CCc2c(Cl)c(O)c(O)c(Cl)c2C1 [Example 1, (E)-1-(5,8-dichloro-6,7-dihydroxy-3,4-dihydroisoquinolin-2(1H)-yl)-3-phenylprop-2-en-1-one]
activity at 10 µM (human bronchiols [1]): 41%

O=C(/C=C/c1cccnc1)N1CCc2c(Cl)c(O)c(O)c(Cl)c2C1 [Example 2, (E)-1-(5,8-dichloro-6,7-dihydroxy-3,4-dihydroisoquinolin-2(1H)-yl)-3-(pyridin-3-yl)prop-2-en-1-one]
activity at 10 µM (human bronchiols [1]): 44%

O=C(/C=C/c1ccc(F)cn1)N1CCc2c(Cl)c(O)c(O)c(Cl)c2C1 [Example 3, (E)-1-(5,8-dichloro-6,7-dihydroxy-3,4-dihydroisoquinolin-2-(1H)-yl)-3-(5-fluoropyridin-2-yl)prop-2-en-1-one]
activity at 10 µM (human bronchiols [1]): 24%
REMAINING CONTRACTION (%) (human bronchiols [2]; [3]): 43%

C/C(=C\C(=O)N1CCc2c(Cl)c(O)c(O)c(Cl)c2C1)c1cnc2ccccc2c1 [Example 5, (E)-1-(5,8-dichloro-6,7-dihydroxy-3,4-dihydroisoquinolin-2(1H)-yl)-3-(quinolin-3-yl)but-2-en-1-one]
activity at 10 µM (human bronchiols [1]): 31%

O=C(/C=C\c1ccccc1O)N1CCc2c(Cl)c(O)c(O)c(Cl)c2C1 [Example 7, (Z)-1-(5,8-dichloro-6,7-dihyroxy-3,4-dihydroisoquinolin-2(1H)-yl)-3-(2-hydroxyphenyl)prop-2-en-1-one]
activity at 10 µM (human bronchiols [1]): 71%

C/C(=C\C(=O)N1CCc2c(Cl)c(O)c(O)c(Cl)c2C1)c1ccc(F)cn1 [Example 8, (E)-1-(5,8-dichloro-6,7-dihydroxy-3,4-dihydroisoquinolin-2(1H)-yl)-3-(5-fluoropyridin-2-yl)but-2-en-1-one]
activity at 10 µM (human bronchiols [1]): 76%

Cc1c(O)c(O)c(C)c2c1CCN(C(=O)/C=C/c1ccc(C(F)(F)F)nc1)C2 [Example 9, (E)-6,7-dihydroxy-5,8-dimethyl-1,2,3,4-tetrahydroisoquinoline 3-(6-(trifluoromethyl)pyridin-3-yl)acrylamide]
activity at 10 µM (human bronchiols [1]): 75%

Cc1nc(C(F)(F)F)ccc1/C=C/C(=O)N1CCc2c(Cl)c(O)c(O)c(Cl)c2C1 [Example 11, (E)-1-(5,8-dichloro-6,7-dihydroxy-3,4-dihydroisoquinolin-2(1H)-yl)-3-(2-methyl-6-(trifluoromethyl)pyridin-3-yl)prop-2-en-1-one]
activity at 10 µM (human bronchiols [1]): 9%
REMAINING CONTRACTION (%) (human bronchiols [2]; [3]): 25%

O=C(/C=C/c1ccc(C(F)(F)F)nc1)N1CCc2c(Cl)c(O)c(O)c(Cl)c2C1 [Example 12, (E)-1-(5,8-dichloro-6,7-dihydroxy-3,4-dihydroisoquinolin-2(1H)-yl)-3-(6-(trifluoromethyl)pyridin-3-yl)prop-2-en-1-one]
activity at 10 µM (human bronchiols [1]): 6%
REMAINING CONTRACTION (%) (human bronchiols [2]; Acetylcholine (100 uM)): 4%
REMAINING CONTRACTION (%) (human bronchiols [2]; Carbachol (10 uM)): 10%
REMAINING CONTRACTION (%) (human bronchiols [2]; Histamine (100 uM)): 1%
REMAINING CONTRACTION (%) (human bronchiols [2]; Methacholine (100 uM)): 7%
REMAINING CONTRACTION (%) (human bronchiols [2]; [3]): 12%
REMAINING CONTRACTION (%) (rat bronhi; Acetylcholine (100 uM)): 40%
REMAINING CONTRACTION (%) (rat bronhi; Carbachol (10 uM)): 27%
REMAINING CONTRACTION (%) (rat bronhi; Methacholine (100 uM)): 49%
Mean MCP-1 (MCP-1; with LPS 0.1 μg/ml (+LPS)): 303.1 pg/mL
Mean MCP-1 (MCP-1; without LPS (−LPS)): 229.7 pg/mL
Mean LTB-4 (LTB4; with LPS 0.1 μg/ml (+LPS)): 9.9 pg/mL
Mean LTB-4 (LTB4; without LPS (−LPS)): 3.9 pg/mL

C/C(=C\C(=O)N1CCc2c(Cl)c(O)c(O)c(Cl)c2C1)c1ccc(C(F)(F)F)nc1 [Example 13]
activity at 10 µM (human bronchiols [1]): 7%
REMAINING CONTRACTION (%) (human bronchiols [2]; Acetylcholine (100 uM)): 7%
REMAINING CONTRACTION (%) (human bronchiols [2]; Histamine (100 uM)): 3%
REMAINING CONTRACTION (%) (human bronchiols [2]; [3]): 18%
REMAINING CONTRACTION (%) (rat bronhi; Acetylcholine (100 uM)): 52%
Mean MCP-1 (MCP-1; with LPS 0.1 μg/ml (+LPS)): 256.7 pg/mL
Mean MCP-1 (MCP-1; without LPS (−LPS)): 217.1 pg/mL
Mean LTB-4 (LTB4; with LPS 0.1 μg/ml (+LPS)): 9.8 pg/mL
Mean LTB-4 (LTB4; without LPS (−LPS)): 4.3 pg/mL
